Source: patent US20080299101A1, “Cancer Treatment Resistance and Agents Modulating Such Resistance” (CENTRE NATIONAL DE LA RECHERCHE SCIENTIFIQUE (CNRS INSTITUT …, priority 2004, published 2008)
“Also recorded” adds a separate entry of the source. *1 amine or outer side, *2 acyl side, *3 side chain or, on linkers, in order; H or OH if unused. Where a SMILES comes first, the peptide text is derived from it. Bridges are numbered along the chain shown (N, C = ends). Roman numbers before positions name the chains, in order. [ ]: non-standard residue; d: D form. Actinocin(9to1) = Cc1c2oc3c(C)ccc(C(=O)[*:1])c3nc-2c(C(=O)[*:2])c(N)c1=O; NMeV = CN[C@H](C(=O)O)C(C)C; Sar = CNCC(=O)O

Experiments:
HCT116/R1 = conditions: oxaliplatin 0 μM (actD alone)
Method: (§1) Cytotoxicity assays were performed by seeding 4000 cells per well in 96 well plates. […] Cytotoxicity measurements were carried out using the WST-1 colorimetric assay (Boehringer Mannheim) according to the manufacturer's recommendation.

HCT116/R2 = conditions: oxaliplatin 0 μM (actD alone)
Method: as §1

HCT116/S = conditions: oxaliplatin 0 μM (actD alone)
Method: as §1

[1] = test system: HCT116/S, HCT116/R1, HCT116/R2; assay: Modulation of oxaliplatin cytotoxicity using actinomycin D preincubation (statement in words); assay type: cell-based; conditions: preincubation at moderately toxic concentrations; preliminary

Compound: Cc1c2oc3c(C)ccc(C(=O)N[C@@H]4C(=O)N[C@H](C(C)C)C(=O)N5CCC[C@H]5C(=O)N(C)CC(=O)N(C)[C@@H](C(C)C)C(=O)O[C@@H]4C)c3nc-2c(C(=O)N[C@@H]2C(=O)N[C@H](C(C)C)C(=O)N3CCC[C@H]3C(=O)N(C)CC(=O)N(C)[C@@H](C(C)C)C(=O)O[C@@H]2C)c(N)c1=O [actD, actinomycin D] (I: T[dV]P[Sar][NMeV] / II: T[dV]P[Sar][NMeV]; ester I:1-I:C, II:1-II:C; linker I:N-II:N via Actinocin(9to1))
- Cytotoxicity of oxali + actD 0.04 nM (HCT116/R1; actD 0.04 nM): 17.3%
- Cytotoxicity of oxali + actD 0.12 nM (HCT116/R1; actD 0.12 nM): 18%
- Cytotoxicity of oxali + actD 0.04 nM (HCT116/R2; actD 0.04 nM): 20.6%
- Cytotoxicity of oxali + actD 0.12 nM (HCT116/R2; actD 0.12 nM): 17.7%
- Cytotoxicity of oxali + actD 0.36 nM (HCT116/R2; actD 0.36 nM): 21.6%
- Cytotoxicity of oxali + actD 0.04 nM (HCT116/S; actD 0.04 nM): 9.1%
- Cytotoxicity of oxali + actD 0.12 nM (HCT116/S; actD 0.12 nM): 27.6%
- Cytotoxicity of oxali + actD 0.36 nM (HCT116/S; actD 0.36 nM): 85.4%
- Effect of actinomycin D preincubation on oxaliplatin activity [1]: synergy effect; also recorded: synergistic effect
